Test results published in patent US12052991B2, “Substituted pyridinyloxybenzenes and salts thereof and use thereof as herbicidal agents” (Bayer Aktiengesellschaft, priority 2018, dated 2024).

Tests used:
Type in all cases: in vivo
Setaria viridis (SETVI) [1] = assay: Herbicidal pre-emergence action, test C (Table C4); conditions: visual scoring after about 3 weeks, 100% = plants have died, 0% = like control plants
Procedure, shortened: (§1)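 Visual percentage damage relative to untreated pots (0% = like control, 100% = dead) was rated roughly 3 weeks after pre-emergence treatment in the greenhouse. Sandy loam pots were sown with weed seeds and covered with soil. The surface was sprayed with WP or EC formulations plus 0.5% additive at 600 L/ha, delivering 1280 or 320 g/ha.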

[2] = system: Amaranthus retroflexus (AMARE); assay: Herbicidal post-emergence action (Table B6); conditions: visual rating about 3 weeks after treatment, 100% = plants have died, 0% = like control plants
Procedure, shortened: (§2)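 Activity was scored visually against untreated plants roughly 3 weeks after treatment, 0% meaning like control and 100% plant death. Application was post-emergence onto green parts at the one-leaf stage, as aqueous suspension/emulsion with 0.5% additive, 600 l/ha, delivering 1280 or 320 g/ha to greenhouse plants in sandy loam.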

[3] = system: Echinochloa crus-galli (ECHCG); assay: Herbicidal pre-emergence action, test C (Table C1); conditions: visual scoring after about 3 weeks, 100% = plants have died, 0% = like control plants
Procedure, shortened: as §1

Stellaria media (STEME) [4] = assay: Herbicidal pre-emergence action, test C (Table C8); conditions: visual scoring after about 3 weeks, 100% = plants have died, 0% = like control plants
Procedure, shortened: as §1

Lolium rigidum (LOLRI) [5] = assay: Herbicidal pre-emergence action, test C (Table C2); conditions: dosage 1280 g/ha; visual scoring after about 3 weeks; 100% = plants have died, 0% = like control plants
Procedure, shortened: as §1

Stellaria media (STEME) [6] = assay: Herbicidal post-emergence action (Table B8); conditions: visual rating about 3 weeks after treatment, 100% = plants have died, 0% = like control plants
Procedure, shortened: as §2

[7] = system: Abutilon theophrasti (ABUTH); assay: Herbicidal pre-emergence action, test C (Table C5); conditions: visual scoring after about 3 weeks, 100% = plants have died, 0% = like control plants
Procedure, shortened: as §1

Poa annua (POAAN) [8] = assay: Herbicidal pre-emergence action, test C (Table C3); conditions: visual scoring after about 3 weeks, 100% = plants have died, 0% = like control plants
Procedure, shortened: as §1

[9] = system: harmful plants ABUTH, AMARE, ECHCG, LOLRI, MATIN, POAAN, SETVI, STEME, ALOMY, DIGSA, KCHSC and VERPE; assay: Herbicidal post-emergence action, summary of Tables B1-B12; conditions: application rate of 1280 or 320 g of active ingredient per hectare; summary in words
Procedure, shortened: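 Activity scored by eye roughly 3 weeks post-treatment against untreated plants, from 0% (no effect) to 100% (plants dead). Application rates were 1280 or 320 g/ha, as aqueous WP/EC spray plus 0.5% additive at 600 L/ha, onto one-leaf-stage weeds grown 2–3 weeks in sandy loam.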

[10] = system: harmful plants ABUTH, AMARE, ECHCG, LOLRI, MATIN, POAAN, SETVI, STEME, ALOMY, DIGSA, KCHSC and VERPE; assay: Herbicidal pre-emergence action (test C), summary of Tables C1-C12; conditions: application rate of 1280 or 320 g of active ingredient per hectare; summary in words
Procedure, shortened: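 Visual % damage versus untreated plants (0% = like control, 100% = died) was scored after about 3 weeks in the greenhouse. Before emergence, seeds sown in sandy loam got a soil-surface spray of compound as WP or EC plus 0.5% additive, using 600 L/ha water at rates of 1280 or 320 g/ha.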

Poa annua (POAAN) [11] = assay: Herbicidal post-emergence action (Table B3); conditions: rated visually after about 3 weeks, 100% = plants have died, 0% = like control plants
Procedure, shortened: as §2

Lolium rigidum (LOLRI) [12] = assay: Herbicidal post-emergence action (Table B2); conditions: rated visually after about 3 weeks, 100% = plants have died, 0% = like control plants
Description: Seeds of mono- and dicotyledonous weed plants were placed in plastic pots in sandy loam soil (doubly sown with in each case one species of mono- or dicotyledonous weed plants per pot), covered with soil and cultivated in a greenhouse under controlled growth conditions. 2 to 3 weeks after sowing, the test plants were treated at the one-leaf stage. The compounds of the invention, formulated in the form of wettable powders (WP) or as emulsion concentrates (EC), were applied onto the green parts of the plants as aqueous suspension or emulsion with addition of 0.5% additive at a water application rate of 600 liters per hectare (converted). After the test plants had been kept in the greenhouse under optimum growth conditions for about 3 weeks, the activity of the preparations was rated visually in comparison to untreated controls. For example, 100% activity=the plants have died, 0% activity=like control plants. Tables B1 to B12 below show the effects of selected compounds of the general formula (I) according to Table 1 on various harmful plants and an application rate corresponding to 1280 or 320 g/ha, which were obtained by the experimental procedure mentioned above.

[13] = system: Abutilon theophrasti (ABUTH); assay: Herbicidal post-emergence action (Table B5); conditions: rated visually after about 3 weeks, 100% = plants have died, 0% = like control plants
Procedure, shortened: as §2

Setaria viridis (SETVI) [14] = assay: Herbicidal post-emergence action (Table B4); conditions: rated visually after about 3 weeks, 100% = plants have died, 0% = like control plants
Procedure, shortened: as §2

[15] = system: Echinochloa crus-galli (ECHCG); assay: Herbicidal post-emergence action (Table B1); conditions: rated visually after about 3 weeks, 100% = plants have died, 0% = like control plants
Procedure, shortened: as §2

[16] = system: Amaranthus retroflexus (AMARE); assay: Herbicidal pre-emergence action, test C (Table C6); conditions: visual scoring after about 3 weeks, 100% = plants have died, 0% = like control plants
Procedure, shortened: as §1

Row | SMILES | Pre-emergence action against Setaria viridis (SETVI) (Setaria viridis (SETVI) [1]; dosage 320 g/ha) | Pre-emergence action against Setaria viridis (SETVI) (Setaria viridis (SETVI) [1]; dosage 1280 g/ha) | Post-emergence action against Amaranthus retroflexus (AMARE) ([2]; dosage 320 g/ha) | Post-emergence action against Amaranthus retroflexus (AMARE) ([2]; dosage 1280 g/ha) | Pre-emergence action against Echinochloa crus-galli (ECHCG) ([3]; dosage 1280 g/ha) | Pre-emergence action against Stellaria media (STEME) (Stellaria media (STEME) [4]; dosage 320 g/ha) | Pre-emergence action against Stellaria media (STEME) (Stellaria media (STEME) [4]; dosage 1280 g/ha) | Pre-emergence action against Lolium rigidum (LOLRI) (Lolium rigidum (LOLRI) [5]) | Post-emergence action against Stellaria media (STEME) (Stellaria media (STEME) [6]; dosage 320 g/ha) | Post-emergence action against Stellaria media (STEME) (Stellaria media (STEME) [6]; dosage 1280 g/ha) | Pre-emergence action against Abutilon theophrasti (ABUTH) ([7]; dosage 1280 g/ha) | Pre-emergence action against Poa annua (POAAN) (Poa annua (POAAN) [8]; dosage 320 g/ha) | Pre-emergence action against Poa annua (POAAN) (Poa annua (POAAN) [8]; dosage 1280 g/ha) | herbicidal activity against the harmful plants of Tables B1-B12 in post-emergence treatment [9] | herbicidal activity against the harmful plants of Tables C1-C12 in pre-emergence treatment [10] | Post-emergence action against Poa annua (POAAN) (Poa annua (POAAN) [11]; 320 g/ha) | Post-emergence action against Poa annua (POAAN) (Poa annua (POAAN) [11]; 1280 g/ha) | Post-emergence action against Lolium rigidum (LOLRI) (Lolium rigidum (LOLRI) [12]; 1280 g/ha) | Post-emergence action against Abutilon theophrasti (ABUTH) ([13]; 320 g/ha) | Post-emergence action against Abutilon theophrasti (ABUTH) ([13]; 1280 g/ha) | further results
1 | Fc1cc(Cl)cnc1Oc1ccccc1-c1cc(C(F)F)no1 [Example 1-36] | 100% | 100% | 100% | 100% | 100% | 100% | 100% | 90% | 100% | 100% | 100% | 100% | 100% | very good herbicidal activity | very good herbicidal activity | 100% | 100% | 100% | 100% | 100% | Post-emergence action against Setaria viridis (SETVI) (Setaria viridis (SETVI) [14]; 1280 g/ha): 100%; Post-emergence action against Echinochloa crus-galli (ECHCG) ([15]; 320 g/ha): 100%; Post-emergence action against Echinochloa crus-galli (ECHCG) ([15]; 1280 g/ha): 100%; Pre-emergence action against Amaranthus retroflexus (AMARE) ([16]; dosage 320 g/ha): 100%; Pre-emergence action against Amaranthus retroflexus (AMARE) ([16]; dosage 1280 g/ha): 100%
2 | Cc1cccc(Oc2ncc(Cl)cc2F)c1-c1cc(C(F)F)no1 [Example 1-20] | 100% | 100% | 100% | 100% | 90% | 100% | 100% | 90% | 100% | 100% | 100% | 90% | 90% | very good herbicidal activity | very good herbicidal activity | 100% | 100% | 90% | 100% | 100% | Pre-emergence action against Echinochloa crus-galli (ECHCG) ([3]; dosage 320 g/ha): 90%; Pre-emergence action against Abutilon theophrasti (ABUTH) ([7]; dosage 320 g/ha): 90%; Post-emergence action against Lolium rigidum (LOLRI) (Lolium rigidum (LOLRI) [12]; 320 g/ha): 90%; Post-emergence action against Echinochloa crus-galli (ECHCG) ([15]; 320 g/ha): 100%; Post-emergence action against Echinochloa crus-galli (ECHCG) ([15]; 1280 g/ha): 100%; Pre-emergence action against Amaranthus retroflexus (AMARE) ([16]; dosage 320 g/ha): 100%; Pre-emergence action against Amaranthus retroflexus (AMARE) ([16]; dosage 1280 g/ha): 100%
3 | Cc1cccc(Oc2ccc(Cl)cn2)c1-c1cc(C(F)F)no1 [Example 1-18, 5-[2-[(5-Chloro-2-pyridyl)oxy]-6-methylphenyl]-3-(difluoromethyl)isoxazole] | 100% | 100% | 100% | 100% | 100% | 100% | 100% | 90% | 100% | 100% | 100% | 90% | 100% | very good herbicidal activity | very good herbicidal activity | 100% | 100% | 100% | 100% | 100% | Pre-emergence action against Echinochloa crus-galli (ECHCG) ([3]; dosage 320 g/ha): 90%; Pre-emergence action against Abutilon theophrasti (ABUTH) ([7]; dosage 320 g/ha): 100%; Post-emergence action against Lolium rigidum (LOLRI) (Lolium rigidum (LOLRI) [12]; 320 g/ha): 90%; Post-emergence action against Setaria viridis (SETVI) (Setaria viridis (SETVI) [14]; 320 g/ha): 100%; Post-emergence action against Setaria viridis (SETVI) (Setaria viridis (SETVI) [14]; 1280 g/ha): 100%; Post-emergence action against Echinochloa crus-galli (ECHCG) ([15]; 320 g/ha): 100%; Post-emergence action against Echinochloa crus-galli (ECHCG) ([15]; 1280 g/ha): 100%; Pre-emergence action against Amaranthus retroflexus (AMARE) ([16]; dosage 320 g/ha): 100%; Pre-emergence action against Amaranthus retroflexus (AMARE) ([16]; dosage 1280 g/ha): 100%
